From paper PMC8610590 (Journal of Virology, 2021) come the findings set out here.

Structures are written as SMILES.

In experiment [1] the test system is SARS-CoV-2 Scotland variant (linage: B.1.222). Briefly: microbe, parasite or virus in culture. The conditions noted are these: Severe acute respiratory syndrome coronavirus 2, Calu-3, read-out: IC50, inhibition of SARS-CoV-2 replication. The experiment is classed as cell-based.
The subject of experiment [2] is SARS-CoV-2 South African variant (linage: B.1.351). The experiment in a line: microbe, parasite or virus in culture. The experiment is classed as cell-based. Particulars: Severe acute respiratory syndrome coronavirus 2, Calu-3, read-out: IC50, inhibition of SARS-CoV-2 replication.

On to `CN1C(=O)c2ccccc2[S+]([O-])c2cc([N+](=O)[O-])ccc2S1(=O)=O` (stereo not shown) [MU-UNMC-1, 6-methyl-2-nitrodibenzo[d,g][1,6,2]dithiazocin-7(6H)-one 5,5,12-trioxide], for which the IC50 in experiment [1] was determined as 2.64 µM; in experiment [2] it was 9.27 µM.
As to `O=C1Nc2cc(C(F)(F)F)ccc2Oc2ccsc21` [MU-UNMC-2, 7-(trifluoromethyl) benzo[b]thieno[2,3-f][1,4]oxazepin-10(9H)-one], the 50% inhibitory concentration (IC50) in experiment [1] turned out to be 1.39 µM; in experiment [2], 3 µM.

The term IC50 denotes the midpoint of a concentration-inhibition curve.
